The results in this text go back to patent US4758574A, “2-phenylimidazio (4,5-c) pyridines” (Eli Lilly and Company, priority 1986, dated 1988).

Structures can show the parent of a compound that is named as a salt. Where two headings read alike, the source gives them in different places.

In assay [1] the test system is Ventricular Contractility in the Anesthetized Dog. Description: Ventricular Contractility in the Anesthetized Dog. The class given is in vivo, Mongrel dogs. The conditions noted are these: Canis lupus familiaris, iv, i.v. bolus, read-out: ED50 (dose required to produce a peak increase in contractility of 50%). The protocol:
Experiments in Anesthetized Dogs Mongrel dogs of either sex ranging in weight from 7 to 14 kg. wer used. Anesthesia was induced with sodium pentobarbital (30 mg./kg., i.v.) and maintained with supplemental doses as required. A positive-pressure pump was used to ventilate the dogs through an endotracheal tube (18 strokes/minute, 20 ml./kg. stroke^-1), and a heating pad kept the body temperature at 37°-38° C. Femoral arterial blood pressure was measured through a polyethylene catheter filled with heparin solution (16 units/ml.) and connected to a Statham pressure transducer. A strain-gauge arch sutured to the right ventricle of the heart measured cardiac contractility. Tension on the gauge was adjusted to 50 g. and the gain of the recorder (Beckman dynograph) was set so that 50 g. caused a 10-mm. pen deflection; cardiac contractile tension was measured as millimeters of pen deflection or grams of tension. The drug was administered following a 30-45 minute equilibrium period as an i.v. bolus (2-5 ml.) in a normal saline vehicle. […] The maximum effects on contractility at various dose levels were determined and plotted and the dose required to produce a 50% increase in contractility (ED50) was determined by interpolation.

The subject of another assay is Cat Papillary Muscles. Description: Positive Inotropic Activity in Isolated Cat Papillary Muscles. The class given is cell-based. Particulars: Felis catus, control = 100 percent, read-out: Contractility of Papillary Muscle (peak response); for activity at 100 µM: Drug Concentration 10^-4 M; for activity at 10 µM: Drug Concentration 10^-5 M. The procedure: Positive Inotropic Activity in Isolated Cat Papillary Muscles […] A platinum hook secured one end of the muscle to an electrode mounted in the bottom of the bath, and a silk thread attached the tendon to a Statham isometric transducer. The baths contained Krebs-Henseleit solution (36° C., bubbled with 95 percent oxygen--5 percent carbon dioxide) of the following millimolar composition: NaCl, 118; KCl, 4.5; CaCl2, 2.5; KH2 PO4, 1.1; MgSO4, 1.2; NaHCO3, 25; and glucose, 11. A base-line tension of 1.5 g. was applied to each muscle. Square-wave pulses (5.0 msec. in duration, three times threshold voltage) delivered through the hook electrode and a second electrode positioned near the top of the muscle evoked 12 contractions/minute, which were recorded on a Grass polygraph. After the muscles had equilibrated for 60 minutes, the recorder gain was adjusted so that the pen deflected 10 mm. The drug was introduced in a solution of normal saline in an amount to bring the final concentration of the drug to 10^-5 or 10^-4 molar. Increases in contractility were tabulated as millimeters of pen deflection in excess of the baseline value. In each experiment the maximum contractility was measured. Test results are summarized in Table I and are expressed as percent of control (control=100 percent). Values are the average of results from 2 to 8 muscles.

Assay [2] deals with SRS-A release, guinea pig lung. Description: Inhibition of SRS-A (Slow-Reacting Substance of Anaphylaxis) From Guinea Pig Lung. The conditions noted are these: Cavia porcellus, sensitized guinea pig lung, ovalbumin antigen, read-out: percent inhibition of SRS-A release. The class given is cell-based. The protocol:
Inhibition of SRS-A (Slow-Reacting Substance of Anaphylaxis) From Guinea Pig Lung
Male, Hartley guinea pigs, usually 1-2 weeks old, were sensitized with respect to ovalbumin by intraperitoneal administration of 0.15 ml. hyperimmune serum obtained from guinea pigs actively sensitized against ovalbumin. After 2 days or more, the animals were decapitated, lungs were excised and perfused through the pulmonary artery with Krebs' bicarbonate solution of the following composition in mmoles/liter: KCl, 4.6; CaCl2.2 H2 O, 1.8; KH2 PO4, 1.2; MgSO4.7H2 O, 1.2; NaCl, 118.2; NaHCO3, 24.8; and dextrose, 10.0. Poorly perfused and bloody areas were discarded. Normal lung was cut into 1 mm. cubes with a McIlwain tissue chopper, washed with Krebs' solution and divided into 400 mg. aliquots. The fragmented tissue was then incubated at 37° C. for 15 minutes in Krebs' solution containing indomethacin to optimize SRS-A release and an appropriate concentration of experimental drug. Antigen (ovalbumin) was then added to make a final concentration of 1×10^-5 g./ml. Fifteen minutes later, the incubation medium was decanted and centrifuged at 3,000×g at 4° C. for 5 minutes. […] Release of SRS-A in the presence of the experimental drug was compared to a control sample and the results expressed as percent inhibition of SRS-A release.

One may read the ED50 as the dose at which the effect has come halfway, by size or by number of responders. As for `COc1cc(SC)ccc1-c1nc2cnccc2[nH]1.Cl` [Example 23, 2-(2-methoxy-4-methylmercaptophenyl)imidazo[4,5-c]pyridine hydrochloride], the ED50 in assay [1] was determined as 0.21 mg/kg. Also, in the assay on Cat Papillary Muscles, the activity at 100 µM was determined as 142% and the activity at 10 µM was determined as 141%.

As to `COc1cc([N+](=O)[O-])ccc1-c1nc2cnccc2[nH]1` [Example 60, 2-(2-Methoxy-4-nitrophenyl)imidazo[4,5-c]pyridine], the ED50 in assay [1] amounted to 0.015 mg/kg. Further, in the assay on Cat Papillary Muscles, the activity at 100 µM is 145% and the activity at 10 µM amounted to 142%.

For `CS(=O)(=O)c1ccc(-c2nc3cnccc3[nH]2)cc1` [Example 4, 2-(4-Methylsulfonylphenyl)imidazo[4,5-c]pyridine hydrochloride], the ED50 in assay [1] is 7.5 mg/kg. Moreover, in the assay on Cat Papillary Muscles, the activity at 100 µM turned out to be 139% and the activity at 10 µM was found to be 117%.

`Cc1cccc(-c2nc3cnccc3[nH]2)c1` [Example 2, 2-(3-Methylphenyl)imidazo[4,5-c]pyridine]: the ED50 in assay [1] was 1 mg/kg. In the assay with Cat Papillary Muscles, the activity at 100 µM came to 181% and the activity at 10 µM was 116%.

Consider `COc1ccc(-c2nc3cnccc3[nH]2)c(OCC[S+](C)[O-])c1` (stereo not drawn) [Example 52, 2-[2-(β-methylsulfinylethoxy)-4-methoxyphenyl]imidazo[4,5-c]pyridine], for which the ED50 in assay [1] was found to be 5.2 mg/kg. Moreover, in the assay with Cat Papillary Muscles, the activity at 100 µM worked out at 185% and the activity at 10 µM amounted to 122%.

For the compound `CSc1ccc(-c2nc3cnccc3[nH]2)cc1.Cl` [Example 9, 2-(4-methylmercaptophenyl)imidazo[4,5-c]pyridine hydrochloride], the ED50 in assay [1] was determined as 4 mg/kg. For the same compound, in the assay with Cat Papillary Muscles, the activity at 100 µM was 205% and the activity at 10 µM turned out to be 113%.

`COc1cc(C(F)(F)F)ccc1-c1nc2cnccc2[nH]1.Cl` [Example 59, 2-(2-Methoxy-4-trifluoromethylphenyl)imidazo[4,5-c]pyridine hydrochloride]: in assay [1], the ED50 worked out at 0.005 mg/kg. In the assay on Cat Papillary Muscles, the activity at 100 µM was 134% and the activity at 10 µM turned out to be 139%.

In the case of `CCOc1ccc(-c2nc3cnccc3[nH]2)cc1.Cl` [Example 13, 2-(4-ethoxyphenyl)imidazo[4,5-c]pyridine hydrochloride], the 50% effective dose (ED50) in assay [1] came out at 2.5 mg/kg. In the assay with Cat Papillary Muscles, the activity at 100 µM came out at 157% and the activity at 10 µM came to 104%.

In the case of `CCSCCOc1cc(OC)ccc1-c1nc2cnccc2[nH]1.Cl` [Example 45, 2-[2-(β-ethylmercaptoethoxy)-4-methoxyphenyl]imidazo[4,5-c]pyridine h ydrochloride], the ED50 in assay [1] was 1 mg/kg. In addition, in the assay on Cat Papillary Muscles, the activity at 100 µM was determined as 125% and the activity at 10 µM amounted to 122%.

Consider `Clc1ccc(-c2nc3cnccc3[nH]2)c(Cl)c1` [Example 47, 2-(2,4-dichlorophenyl)imidazo[4,5-c]pyridine], for which the ED50 in assay [1] turned out to be 0.67 mg/kg. Also, in the assay with Cat Papillary Muscles, the activity at 100 µM worked out at 157% and the activity at 10 µM is 105%.

As for `c1ccc(-c2nc3cnccc3[nH]2)cc1` [Example 7, 2-Phenylimidazo[4,5-c]pyridine], the ED50 in assay [1] (tested as the hydrochloride salt) worked out at 2.5 mg/kg. Besides, in the assay on Cat Papillary Muscles, the activity at 100 µM turned out to be 192% and the activity at 10 µM is 107%.

For `Cc1ccc(-c2nc3cnccc3[nH]2)c(C)c1` [Example 24, 2-(2,4-dimethylphenyl)imidazo[4,5-c]pyridine hydrochloride], in assay [1], the ED50 amounted to 1.4 mg/kg. In the assay with Cat Papillary Muscles, the activity at 100 µM stood at 94% and the activity at 10 µM was determined as 87%.

Take `COc1cc(S(C)(=O)=O)ccc1-c1nc2cnccc2[nH]1` [Example 50, 2-(2-methoxy-4-methylsulfonylphenyl)imidazo[4,5-c]pyridine]: the ED50 in assay [1] stood at 0.02 mg/kg. Moreover, in the assay with Cat Papillary Muscles, the activity at 100 µM is 221% and the activity at 10 µM was 176%.

As for `COc1ccc(-c2nc3cnccc3[nH]2)c(OCCSC)c1` [Example 39, 2-[2-(β-methylmercaptoethoxy)-4-methoxyphenyl]imidazo[4,5-c]pyridine], the ED50 in assay [1] worked out at 1.1 mg/kg. Moreover, in the assay with Cat Papillary Muscles, the activity at 100 µM worked out at 140% and the activity at 10 µM worked out at 118%.

`Cc1ccccc1-c1nc2cnccc2[nH]1` [Example 26, 2-(2-methylphenyl)imidazo[4,5-c]pyridine hydrochloride]: the ED50 in assay [1] came to 2.2 mg/kg. Besides, in the assay with Cat Papillary Muscles, the activity at 100 µM amounted to 188% and the activity at 10 µM is 106%.

In the case of `COc1cc([S+](C)[O-])ccc1-c1nc2cnccc2[nH]1` (stereo not drawn) [Example 27, 2-(2-methoxy-4-methylsulfinylphenyl)imidazo[4,5-c]pyridine], the ED50 in assay [1] worked out at 0.03 mg/kg. In addition, in the assay with Cat Papillary Muscles, the activity at 100 µM came to 200% and the activity at 10 µM worked out at 245%.

The inhibition is the share of the control response that was lost under treatment. With `COc1ccc(-c2nc3cnccc3[nH]2)c(OC)c1` [Example 8, 2-(2,4-Dimethoxyphenyl)imidazo[4,5-c]pyridine hydrochloride], the ED50 in assay [1] worked out at 0.27 mg/kg. For the same compound, the inhibition at 100 µM in assay [2] (1×10^-4 M) worked out at 45.1%. Besides, the inhibition at 10 µM in assay [2] (1×10^-5 M) came to 19.4%. Besides, in the assay on Cat Papillary Muscles, the activity at 100 µM came out at 172% and the activity at 10 µM was 158%.

`CCCOc1cc(SC)ccc1-c1nc2cnccc2[nH]1` [Example 43, 2-(2-n-propoxy-4-methylmercaptophenyl)imidazo[4,5-c]pyridine]: the ED50 in assay [1] stood at 2.2 mg/kg.

As for `COc1ccc(-c2nc3cnccc3[nH]2)cc1.Cl` [Example 15, 2-(4-methoxyphenyl)imidazo[4,5-c]pyridine hydrochloride], the ED50 in assay [1] was determined as 1.7 mg/kg. Also, in the assay with Cat Papillary Muscles, the activity at 100 µM was determined as 204% and the activity at 10 µM was determined as 104%.

Regarding `COc1ccc(-c2nc3cnccc3[nH]2)cc1OC.Cl` [Example 56, 2-(3,4-dimethoxyphenyl)imidazo[4,5-c]pyridine hydrochloride], the ED50 in assay [1] came out at 0.38 mg/kg. In the assay with Cat Papillary Muscles, the activity at 100 µM came to 252% and the activity at 10 µM came to 163%.

On to `CCCOc1cc([S+](C)[O-])ccc1-c1nc2cnccc2[nH]1` (stereo not drawn) [Example 54, 2-(2-n-propoxy-4-methylsulfinylphenyl)imidazo[4,5-c]pyridine], for which, in assay [1], the median effective dose (ED50) came out at 1 mg/kg. Further, in the assay on Cat Papillary Muscles, the activity at 100 µM amounted to 159% and the activity at 10 µM was determined as 122%.

Turning to `CCCOc1cc(OC)ccc1-c1nc2cnccc2[nH]1` [Example 29, 2-(2-n-propoxy-4-methoxyphenyl)imidazo[4,5-c]pyridine], in assay [1], the ED50 was 1.3 mg/kg. In the assay with Cat Papillary Muscles, the activity at 100 µM is 335% and the activity at 10 µM was 134%.
